Data reported in patent publication US20240034723A1, “PIPERIDINYL SMALL MOLECULE DEGRADERS OF HELIOS AND METHODS OF USE” (DANA-FARBER CANCER INSTITUTE, INC., priority 2020, published 2024).

Experiments:
IKZF2 (Helios) [1] = target: T1, IKZF2 (Helios) (Homo sapiens, UniProt Q96SW2+Q9UKS7); assay: HiBiT protocol: HiBiT-Helios degradation in MOLT4 cells (Example 63); assay type: cell-based; conditions: after 6 hours of treatment, 13-point 10 μM to 0.00026 μM
T1 construct: CRISPR/Cas-mediated insertion of the HiBiT peptide tag (Promega™) to the N-terminus of the IKZF2 gene locus; endogenous in cells; host or cells: MOLT4 cells, CRISPR/Cas knock-in of HiBiT at the endogenous IKZF2 locus
Experimental: The HiBiT protein tagging system was applied to MOLT4 cells via a CRISPR/Cas-mediated insertion of the HiBiT peptide tag (Promega™) to the N-terminus of the IKZF2 gene locus (Neon™ Transfection System). The resulting HiBiT-Helios stable cell line was treated with the following inventive compounds in triplicates following a 13-point concentration scheme ranging from 10 μM to 0.00026 μM. At the indicated timepoints, the Nano-Glo® HiBiT Lytic Detection system (Promega™) was utilized for detecting bioluminescence of the HiBiT tag in treated cells: the abundance of the tag is proportionate to the level of luminescence. Following normalization to DMSO, dose-response curves were plotted (GraphPad Prism) to determine the concentration points at which 50% of HiBiT-Helios degradation was achieved by each compound. The extent of degradation (range of luminescence) from the highest to lowest concentration points was calculated to determine Dmax.

IKZF2 (Helios) [2] = target: T1, IKZF2 (Helios); assay: MOLT4 IKZF2 HiBit assay protocol (Example 64); assay type: cell-based; conditions: MOLT4 IKZF2 HiBit cells, 10-point 30 μM to 1 nM; table title: after 6 hours of treatment (method: incubated 24 hours)
Experimental: This protocol uses MOLT4 cells that were engineered using CRISPR/Cas9-mediated genomic insertion of HiBit, tagged to the N terminus of the IKZF2 coding sequence. Day 1. Created a 10-point dose response starting from 30 μM down to 1 nM using a Tecan D300e. Next added 8,000 cells/well of the MOLT4 IKZF2 HiBit cells to the compound plate. […] Day 2. Added Nano-Glo® HiBit Lytic Buffer/Nano-Glo® HiBit Lytic substrate/LgBit Protein mix to each well and incubated for 15 minutes. Finally, read luminescence signal using a BMG Labtech PHERAstar® FSX. Data was normalized to DMSO and graphed using GraphPad Prism to determine the concentration points at which 50% of HiBiT-Helios degradation was achieved by each compound. The extent of degradation (range of luminescence) from the highest to lowest concentration points was calculated to determine Dmax.

T1 sequence (Q9UKS7 whole entry): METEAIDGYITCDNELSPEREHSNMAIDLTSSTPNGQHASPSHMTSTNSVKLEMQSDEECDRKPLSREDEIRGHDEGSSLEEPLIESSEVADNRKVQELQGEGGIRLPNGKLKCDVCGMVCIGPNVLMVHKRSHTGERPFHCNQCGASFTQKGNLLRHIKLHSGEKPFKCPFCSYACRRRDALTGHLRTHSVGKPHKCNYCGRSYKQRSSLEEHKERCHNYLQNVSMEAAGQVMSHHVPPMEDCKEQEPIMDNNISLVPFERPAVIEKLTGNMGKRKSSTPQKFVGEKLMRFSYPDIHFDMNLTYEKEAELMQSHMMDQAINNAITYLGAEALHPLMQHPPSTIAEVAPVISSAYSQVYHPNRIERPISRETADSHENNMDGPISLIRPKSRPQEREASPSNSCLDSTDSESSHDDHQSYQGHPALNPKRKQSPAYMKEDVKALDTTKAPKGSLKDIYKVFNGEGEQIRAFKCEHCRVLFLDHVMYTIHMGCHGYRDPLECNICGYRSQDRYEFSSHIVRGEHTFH
T1 sequence (Q96SW2 whole entry): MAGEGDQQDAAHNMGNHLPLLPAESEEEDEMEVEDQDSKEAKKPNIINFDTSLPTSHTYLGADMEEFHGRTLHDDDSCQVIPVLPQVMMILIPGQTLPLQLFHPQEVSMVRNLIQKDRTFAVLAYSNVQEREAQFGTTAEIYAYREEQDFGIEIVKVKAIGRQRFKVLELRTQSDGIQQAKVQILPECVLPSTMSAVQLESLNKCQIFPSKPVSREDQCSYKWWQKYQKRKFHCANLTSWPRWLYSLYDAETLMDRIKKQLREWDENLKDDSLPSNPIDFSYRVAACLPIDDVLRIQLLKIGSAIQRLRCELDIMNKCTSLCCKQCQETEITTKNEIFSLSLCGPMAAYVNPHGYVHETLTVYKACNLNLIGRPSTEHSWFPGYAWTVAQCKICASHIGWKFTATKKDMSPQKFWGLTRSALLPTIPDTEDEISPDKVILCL
T1 sequence (Q16531 whole entry partner): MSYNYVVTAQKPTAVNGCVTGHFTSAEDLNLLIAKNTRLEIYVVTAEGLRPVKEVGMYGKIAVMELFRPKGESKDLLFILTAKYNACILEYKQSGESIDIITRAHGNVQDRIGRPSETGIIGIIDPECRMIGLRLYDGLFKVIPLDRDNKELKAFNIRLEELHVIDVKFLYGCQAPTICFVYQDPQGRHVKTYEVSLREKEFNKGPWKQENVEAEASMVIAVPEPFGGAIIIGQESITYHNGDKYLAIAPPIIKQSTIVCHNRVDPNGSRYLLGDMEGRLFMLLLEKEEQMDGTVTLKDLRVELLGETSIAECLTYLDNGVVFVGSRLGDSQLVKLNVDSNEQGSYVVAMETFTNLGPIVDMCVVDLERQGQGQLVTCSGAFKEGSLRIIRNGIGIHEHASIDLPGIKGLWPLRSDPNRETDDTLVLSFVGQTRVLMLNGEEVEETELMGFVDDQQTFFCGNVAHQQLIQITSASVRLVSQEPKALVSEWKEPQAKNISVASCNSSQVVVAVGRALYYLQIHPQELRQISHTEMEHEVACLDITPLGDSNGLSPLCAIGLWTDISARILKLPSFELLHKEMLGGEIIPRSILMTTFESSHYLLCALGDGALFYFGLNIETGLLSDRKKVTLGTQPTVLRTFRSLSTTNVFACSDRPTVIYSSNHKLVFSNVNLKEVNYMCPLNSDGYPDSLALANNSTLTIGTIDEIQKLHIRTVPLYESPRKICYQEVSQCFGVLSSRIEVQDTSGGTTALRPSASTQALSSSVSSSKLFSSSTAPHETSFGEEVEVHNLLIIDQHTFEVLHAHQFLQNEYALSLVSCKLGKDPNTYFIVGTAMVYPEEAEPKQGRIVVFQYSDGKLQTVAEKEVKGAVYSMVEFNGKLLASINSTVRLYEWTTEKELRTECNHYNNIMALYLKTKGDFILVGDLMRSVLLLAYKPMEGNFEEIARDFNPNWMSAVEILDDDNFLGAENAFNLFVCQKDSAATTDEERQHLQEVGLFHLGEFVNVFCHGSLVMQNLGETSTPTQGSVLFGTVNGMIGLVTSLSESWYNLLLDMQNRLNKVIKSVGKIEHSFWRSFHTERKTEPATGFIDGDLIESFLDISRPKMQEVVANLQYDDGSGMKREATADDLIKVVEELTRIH

SMILES | DC50 (IKZF2 (Helios) [1]) [nM] | DC50 (IKZF2 (Helios) [2]) [nM]
O=C1CCC(N2Cc3cc(C4CCN(Cc5ccc6c(c5)C(=O)N(c5ccccc5)CCO6)CC4)ccc3C2=O)C(=O)N1 (centres unmarked) [Compound 1, 3-(1-oxo-5-(1-((5-oxo-4-phenyl-2,3,4,5-tetrahydrobenzo[f][1,4]oxazepin-7-yl)methyl)piperidin-4-yl)isoindolin-2-yl)piperidine-2,6-dione] | < 5 | –
O=C1CCC(N2Cc3cc(C4CCN(Cc5ccc6c(c5)C(=O)N(c5ccccn5)CCO6)CC4)ccc3C2=O)C(=O)N1 (centres unmarked) [Compound 3] | 5 to 25 | –
O=C1CCC(N2Cc3cc(C4CCN(Cc5ccc6c(c5)C(=O)N(c5cccc(F)c5)CCO6)CC4)ccc3C2=O)C(=O)N1 (centres unmarked) [Compound 5] | < 5 | –
O=C1CCC(N2Cc3cc(C4CCN(Cc5ccc6c(c5)C(=O)N(c5cccc(Cl)c5)CCO6)CC4)ccc3C2=O)C(=O)N1 (centres unmarked) [Compound 6] | < 5 | –
O=C1CCC(N2Cc3cc(C4CCN(Cc5cc6n(n5)CCN(c5ccccc5)C6=O)CC4)ccc3C2=O)C(=O)N1 (centres unmarked) [Compound 8, 3-(1-oxo-5-(1-((4-oxo-5-phenyl-4,5,6,7-tetrahydropyrazolo[1,5a]pyrazin-2-yl)methyl)piperidin-4-yl)isoindolin-2-yl)piperidine-2,6-dione] | 5 to 25 | –
Cn1cccc(Nc2cccc(CN3CCC(c4ccc5c(c4)CN(C4CCC(=O)NC4=O)C5=O)CC3)c2)c1=O (centres unmarked) [Compound 12, 3-(5-(1-(3-((1-Methyl-2-oxo-1,2-dihydropyridin-3-yl)amino)benzyl)piperidin-4-yl)-1-oxoisoindolin-2-yl)piperidine-2,6-dione] | 5 to 25 | –
O=C1CCC(N2Cc3cc(C4CCN(Cc5ccc6c(c5)N(c5ccccc5)C(=O)C6)CC4)ccc3C2=O)C(=O)N1 (centres unmarked) [Compound 18, 3-[1-oxo-5-[1-[(2-oxo-1-phenyl-indolin-6-yl)methyl]-4-piperidyl]isoindolin-2-yl]piperidine-2,6-dione] | < 5 | –
O=C1CCC(N2Cc3cc(C4CCN(Cc5ccc6c(c5)N(c5ccccc5)C(=O)CCC6)CC4)ccc3C2=O)C(=O)N1 (centres unmarked) [Compound 22] | 5 to 25 | –
O=C1CCC(N2Cc3cc(C4CCN(Cc5ccc6ncn(-c7ccccc7F)c(=O)c6c5)CC4)ccc3C2=O)C(=O)N1 (centres unmarked) [Compound 27] | 5 to 25 | –
O=C1CCC(N2Cc3cc(C4CCN(Cc5ccc6ncn(-c7ccccn7)c(=O)c6c5)CC4)ccc3C2=O)C(=O)N1 (centres unmarked) [Compound 31, 3-(1-oxo-5-(1-((4-oxo-3-(pyridin-2-yl)-3,4-dihydroquinazolin-6-yl)methyl)piperidin-4-yl)isoindolin-2-yl)piperidine-2,6-dione] | 5 to 25 | –
O=C1CCC(N2Cc3cc(C4CCN(Cc5ccc6cc(-c7ccccc7)nn6c5)CC4)ccc3C2=O)C(=O)N1 (centres unmarked) [Compound 38, 3-[1-oxo-5-[1-[(2-phenylpyrazolo[1,5-a]pyridin-6-yl)methyl]-4-piperidyl]isoindolin-2-yl]piperidine-2,6-dione] | 5 to 25 | –
O=C1CCC(N2Cc3cc(C4CCN(Cc5ccc6ccc(-c7ccccc7)nc6c5)CC4)ccc3C2=O)C(=O)N1 (centres unmarked) [Compound 41] | 25 to 100 | –
O=C1CCC(N2Cc3cc(C4CCN(Cc5ccc6cn(-c7ccccc7)nc6c5)CC4)ccc3C2=O)C(=O)N1 (centres unmarked) [Compound 42] | < 5 | –
O=C1CCC(N2Cc3cc(C4CCN(Cc5ccc6cnn(-c7ccccn7)c(=O)c6c5)CC4)ccc3C2=O)C(=O)N1 (centres unmarked) [Compound 43, 3-[1-oxo-5-[1-[[4-oxo-3-(2-pyridyl)phthalazin-6-yl]methyl]-4-piperidyl]isoindolin-2-yl]piperidine-2,6-dione] | 5 to 25 | –
O=C1CCC(N2Cc3cc(C4CCN(Cc5ccc6ncn(-c7ccccc7)c(=O)c6c5)CC4)ccc3C2=O)C(=O)N1 (centres unmarked) [Compound 44] | 5 to 25 | –
O=C1CCC(N2Cc3cc(C4CCN(Cc5ccc6c(c5)C(=O)N(c5ccccc5F)CCO6)CC4)ccc3C2=O)C(=O)N1 (centres unmarked) [Compound 45] | < 5 | –
O=C1CCC(N2Cc3cc(C4CCN(Cc5ccc6c(c5)C(=O)N(c5ncccn5)CCO6)CC4)ccc3C2=O)C(=O)N1 (centres unmarked) [Compound 46] | 5 to 25 | –
O=C1CCC(N2Cc3cc(C4CCN(Cc5ccc6c(c5)C(=O)N(c5ccncn5)CCO6)CC4)ccc3C2=O)C(=O)N1 (centres unmarked) [Compound 47] | 5 to 25 | –
O=C1CCC(N2Cc3cc(C4CCN(Cc5ccc6c(c5)C(=O)N(c5ccsn5)CCO6)CC4)ccc3C2=O)C(=O)N1 (centres unmarked) [Compound 48] | 5 to 25 | –
O=C1CCC(N2Cc3cc(C4CCN(Cc5ccc6c(c5)C(=O)N(c5ccns5)CCO6)CC4)ccc3C2=O)C(=O)N1 (centres unmarked) [Compound 49] | < 5 | –
O=C1CCC(N2Cc3cc(C4CCN(Cc5ccc6ccn(-c7ccccn7)c(=O)c6c5)CC4)ccc3C2=O)C(=O)N1 (centres unmarked) [Compound 57] | < 5 | –
O=C1CCC(N2Cc3cc(C4CCN(Cc5ccc6ncn(-c7ncccc7F)c(=O)c6c5)CC4)ccc3C2=O)C(=O)N1 (centres unmarked) [Compound 58] | < 5 | –
O=C1CCC(N2Cc3cc(C4CCN(Cc5ccc6ncn(-c7ccns7)c(=O)c6c5)CC4)ccc3C2=O)C(=O)N1 (centres unmarked) [Compound 59] | 5 to 25 | –
O=C1CCC(N2Cc3cc(C4CCN(Cc5cn6cc(-c7cccnc7)ccc6n5)CC4)ccc3C2=O)C(=O)N1 (centres unmarked) [Compound 97, 3-(1-oxo-5-(1-((6-(pyridin-3-yl)imidazo[1,2-a]pyridin-2-yl)methyl)piperidin-4-yl)isoindolin-2-yl)piperidine-2,6-dione] | – | 25 to 100
O=C1CCC(N2Cc3cc(C4CCN(Cc5cn6ccc(-c7ccccc7)cc6n5)CC4)ccc3C2=O)C(=O)N1 (centres unmarked) [Compound 98, 3-(1-oxo-5-(1-((7-phenylimidazo[1,2-a]pyridin-2-yl)methyl)piperidin-4-yl)isoindolin-2-yl)piperidine-2,6-dione] | – | 25 to 100
O=C1CCC(N2Cc3cc(C4CCN(Cc5cn6ccc(-c7cccnc7)cc6n5)CC4)ccc3C2=O)C(=O)N1 (centres unmarked) [Compound 99, 3-(1-oxo-5-(1-((7-(pyridin-3-yl)imidazo[1,2-a]pyridin-2-yl)methyl)piperidin-4-yl)isoindolin-2-yl)piperidine-2,6-dione] | – | 25 to 100
